Where two headings read alike, the source gives them in different places.
Columns and labels:
[1] = molecular target: T1, PI3K δ (Homo sapiens, UniProt O00329); test: In vitro PI3K δ inhibition assay; assay type: biochemical
T1 construct: purchased Upstate
Description: (§1) Class I PI3-Ks can be either purchased (p110α/p85α, p110β/p85α, p110δ/p85α from Upstate, and p110γ from Sigma) or expressed as previously described (Knight et al., 2004). IC50 values are measured using either a standard TLC assay for lipid kinase activity (described below) or a high-throughput membrane capture assay. Kinase reactions are performed by preparing a reaction mixture containing kinase, inhibitor (2% DMSO final concentration), buffer (25 mM HEPES, pH 7.4, 10 mM MgCl2), and freshly sonicated phosphatidylinositol (100 μg/ml). Reactions are initiated by the addition of ATP containing 10 μCi of γ-32P-ATP to a final concentration of 10 or 100 μM and allowed to proceed for 5 minutes at room temperature. For TLC analysis, reactions are then terminated by the addition of 105 μl 1N HCl followed by 160 μl CHCl3:MeOH (1:1). The biphasic mixture is vortexed, briefly centrifuged, and the organic phase is transferred to a new tube using a gel loading pipette tip precoated with CHCl3. This extract is spotted on TLC plates and developed for 3-4 hours in a 65:35 solution of n-propanol:1M acetic acid. The TLC plates are then dried, exposed to a phosphorimager screen (Storm, Amersham), and quantitated. For each compound, kinase activity is measured at 10-12 inhibitor concentrations representing two-fold dilutions from the highest concentration tested (typically, 200 μM). […] Other commercial kits or systems for assaying PI3-K activities are available. The commercially available kits or systems can be used to screen for inhibitors and/or agonists of PI3-Ks including, but not limited to, PI 3-Kinase α, β, δ, and γ. An exemplary system is PI 3-Kinase (human) HTRF™ Assay from Upstate. […] Briefly, the assay is a time resolved FRET assay that indirectly measures PIP3 product formed by the activity of a PI3-K. The kinase reaction is performed in a microtiter plate (e.g., a 384 well microtiter plate). The total reaction volume is approximately 20 μl per well. In the first step, each well receives 2 μl of test compound in 20% dimethylsulphoxide resulting in a 2% DMSO final concentration. Next, approximately 14.5 μl of a kinase/PIP2 mixture (diluted in 1× reaction buffer) is added per well for a final concentration of 0.25-0.3 μg/ml kinase and 10 μM PIP2. The plate is sealed and incubated for 15 minutes at room temperature. To start the reaction, 3.5 μl of ATP (diluted in 1× reaction buffer) is added per well for a final concentration of 10 μM ATP. The plate is sealed and incubated for 1 hour at room temperature. The reaction is stopped by adding 5 μl of Stop Solution per well and then 5 μl of Detection Mix is added per well. The plate is sealed, incubated for 1 hour at room temperature, and then read on an appropriate plate reader. Data is analyzed and IC50s are generated using GraphPad Prism 5.

[2] = molecular target: T2, PI3K γ (Homo sapiens, UniProt P48736); test: In vitro PI3K γ inhibition assay; assay type: biochemical
T2 construct: purchased Sigma
T2 sequence (P48736 whole entry): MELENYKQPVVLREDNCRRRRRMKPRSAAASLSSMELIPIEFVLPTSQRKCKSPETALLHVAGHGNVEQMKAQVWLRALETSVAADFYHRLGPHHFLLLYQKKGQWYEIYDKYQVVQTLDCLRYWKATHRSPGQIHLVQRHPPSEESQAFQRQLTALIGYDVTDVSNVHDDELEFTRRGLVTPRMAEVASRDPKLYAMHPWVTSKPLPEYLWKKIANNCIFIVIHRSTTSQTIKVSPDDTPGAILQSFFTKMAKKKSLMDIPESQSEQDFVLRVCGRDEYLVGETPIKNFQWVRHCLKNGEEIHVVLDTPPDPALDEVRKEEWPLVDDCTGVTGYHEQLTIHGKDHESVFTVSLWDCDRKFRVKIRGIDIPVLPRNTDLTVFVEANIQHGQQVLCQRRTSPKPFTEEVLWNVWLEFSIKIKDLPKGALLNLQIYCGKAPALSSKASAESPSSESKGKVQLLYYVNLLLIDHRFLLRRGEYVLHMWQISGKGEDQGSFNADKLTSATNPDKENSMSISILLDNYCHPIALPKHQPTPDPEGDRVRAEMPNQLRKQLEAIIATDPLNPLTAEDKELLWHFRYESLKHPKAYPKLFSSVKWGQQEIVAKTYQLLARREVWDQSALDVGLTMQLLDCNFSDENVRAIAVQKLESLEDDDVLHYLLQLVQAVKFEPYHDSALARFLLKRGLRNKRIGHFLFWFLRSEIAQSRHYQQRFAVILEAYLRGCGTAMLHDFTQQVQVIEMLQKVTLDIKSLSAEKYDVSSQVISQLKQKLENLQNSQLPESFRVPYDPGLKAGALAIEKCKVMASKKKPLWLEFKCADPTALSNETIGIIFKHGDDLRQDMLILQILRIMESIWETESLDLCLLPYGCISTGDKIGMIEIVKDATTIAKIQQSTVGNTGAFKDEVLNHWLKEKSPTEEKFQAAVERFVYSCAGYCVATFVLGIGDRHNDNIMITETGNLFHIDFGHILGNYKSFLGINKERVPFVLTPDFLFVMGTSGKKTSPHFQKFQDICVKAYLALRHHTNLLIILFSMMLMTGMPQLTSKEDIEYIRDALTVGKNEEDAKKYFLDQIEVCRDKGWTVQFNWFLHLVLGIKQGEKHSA
Description: as §1

[3] = molecular target: T3, PI3K α (Homo sapiens, UniProt P42336); test: In vitro PI3K α inhibition assay; assay type: biochemical
T3 construct: purchased Upstate
T3 sequence (P42336 whole entry): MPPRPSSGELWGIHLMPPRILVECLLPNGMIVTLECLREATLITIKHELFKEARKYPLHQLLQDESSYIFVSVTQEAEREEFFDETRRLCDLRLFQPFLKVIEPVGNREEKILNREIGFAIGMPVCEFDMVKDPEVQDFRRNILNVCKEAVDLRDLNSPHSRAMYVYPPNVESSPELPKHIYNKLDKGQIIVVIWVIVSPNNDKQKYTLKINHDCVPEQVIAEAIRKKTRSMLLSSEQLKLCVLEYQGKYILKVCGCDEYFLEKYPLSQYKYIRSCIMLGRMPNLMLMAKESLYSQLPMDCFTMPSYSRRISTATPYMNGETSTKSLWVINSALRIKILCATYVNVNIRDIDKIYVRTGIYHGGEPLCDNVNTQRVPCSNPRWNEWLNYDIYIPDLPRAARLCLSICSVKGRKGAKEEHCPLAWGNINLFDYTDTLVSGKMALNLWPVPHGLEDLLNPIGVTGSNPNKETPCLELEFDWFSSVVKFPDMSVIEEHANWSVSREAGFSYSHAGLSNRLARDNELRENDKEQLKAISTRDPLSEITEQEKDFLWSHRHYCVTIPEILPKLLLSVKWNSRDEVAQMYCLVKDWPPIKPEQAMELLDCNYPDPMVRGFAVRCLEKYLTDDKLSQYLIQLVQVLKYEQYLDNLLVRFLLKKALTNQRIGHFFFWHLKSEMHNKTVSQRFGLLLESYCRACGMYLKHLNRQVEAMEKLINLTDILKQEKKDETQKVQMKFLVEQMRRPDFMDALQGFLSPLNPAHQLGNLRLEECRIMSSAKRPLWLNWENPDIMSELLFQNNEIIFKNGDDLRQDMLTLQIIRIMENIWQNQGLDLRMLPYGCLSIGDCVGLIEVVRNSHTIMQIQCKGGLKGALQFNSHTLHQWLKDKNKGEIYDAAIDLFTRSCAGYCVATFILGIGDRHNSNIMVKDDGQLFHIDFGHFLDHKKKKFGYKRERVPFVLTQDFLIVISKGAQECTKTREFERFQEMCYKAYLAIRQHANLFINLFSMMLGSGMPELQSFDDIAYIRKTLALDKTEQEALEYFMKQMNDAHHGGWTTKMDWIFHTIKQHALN
T3 sequence (P27986 whole entry partner): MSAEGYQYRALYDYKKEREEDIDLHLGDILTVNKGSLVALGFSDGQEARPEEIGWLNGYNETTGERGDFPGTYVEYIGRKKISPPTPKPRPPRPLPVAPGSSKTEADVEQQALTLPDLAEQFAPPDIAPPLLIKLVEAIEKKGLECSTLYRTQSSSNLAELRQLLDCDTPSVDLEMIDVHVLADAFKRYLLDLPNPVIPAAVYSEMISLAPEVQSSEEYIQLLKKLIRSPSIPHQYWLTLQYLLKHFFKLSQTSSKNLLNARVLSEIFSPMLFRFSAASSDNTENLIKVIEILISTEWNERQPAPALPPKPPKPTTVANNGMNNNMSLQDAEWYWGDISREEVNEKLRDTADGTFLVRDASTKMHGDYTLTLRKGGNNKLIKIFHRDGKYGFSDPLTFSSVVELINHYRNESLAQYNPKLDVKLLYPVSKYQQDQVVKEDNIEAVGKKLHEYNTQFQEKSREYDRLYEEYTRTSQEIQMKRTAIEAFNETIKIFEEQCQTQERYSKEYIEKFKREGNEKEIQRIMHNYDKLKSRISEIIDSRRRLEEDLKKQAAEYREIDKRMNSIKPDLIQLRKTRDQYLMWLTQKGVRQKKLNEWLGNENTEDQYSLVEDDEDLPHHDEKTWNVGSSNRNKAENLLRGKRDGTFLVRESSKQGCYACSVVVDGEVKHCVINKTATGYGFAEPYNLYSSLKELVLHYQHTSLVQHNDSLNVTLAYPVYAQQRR
Description: (§2) Class I PI3-Ks can be either purchased (p110α/p85α, p110β/p85α, p110δ/p85α from Upstate, and p110γ from Sigma) or expressed as previously described (Knight et al., 2004). IC50 values are measured using either a standard TLC assay for lipid kinase activity (described below) or a high-throughput membrane capture assay. Kinase reactions are performed by preparing a reaction mixture containing kinase, inhibitor (2% DMSO final concentration), buffer (25 mM HEPES, pH 7.4, 10 mM MgCl2), and freshly sonicated phosphatidylinositol (100 μg/ml). Reactions are initiated by the addition of ATP containing 10 μCi of γ-32P-ATP to a final concentration of 10 or 100 μM and allowed to proceed for 5 minutes at room temperature. For TLC analysis, reactions are then terminated by the addition of 105 μl 1N HCl followed by 160 μl CHCl3:MeOH (1:1). The biphasic mixture is vortexed, briefly centrifuged, and the organic phase is transferred to a new tube using a gel loading pipette tip precoated with CHCl3. This extract is spotted on TLC plates and developed for 3-4 hours in a 65:35 solution of n-propanol:1M acetic acid. The TLC plates are then dried, exposed to a phosphorimager screen (Storm, Amersham), and quantitated. For each compound, kinase activity is measured at 10-12 inhibitor concentrations representing two-fold dilutions from the highest concentration tested (typically, 200 μM).
(§3) Other commercial kits or systems for assaying PI3-K activities are available. The commercially available kits or systems can be used to screen for inhibitors and/or agonists of PI3-Ks including, but not limited to, PI 3-Kinase α, β, δ, and γ. An exemplary system is PI 3-Kinase (human) HTRF™ Assay from Upstate. […] Briefly, the assay is a time resolved FRET assay that indirectly measures PIP3 product formed by the activity of a PI3-K. The kinase reaction is performed in a microtiter plate (e.g., a 384 well microtiter plate). The total reaction volume is approximately 20 μl per well. In the first step, each well receives 2 μl of test compound in 20% dimethylsulphoxide resulting in a 2% DMSO final concentration. Next, approximately 14.5 μl of a kinase/PIP2 mixture (diluted in 1× reaction buffer) is added per well for a final concentration of 0.25-0.3 μg/ml kinase and 10 μM PIP2. The plate is sealed and incubated for 15 minutes at room temperature. To start the reaction, 3.5 μl of ATP (diluted in 1× reaction buffer) is added per well for a final concentration of 10 μM ATP. The plate is sealed and incubated for 1 hour at room temperature. The reaction is stopped by adding 5 μl of Stop Solution per well and then 5 μl of Detection Mix is added per well. The plate is sealed, incubated for 1 hour at room temperature, and then read on an appropriate plate reader. Data is analyzed and IC50s are generated using GraphPad Prism 5.

[4] = molecular target: T4, PI3K β (Homo sapiens, UniProt P42338); test: In vitro PI3K β inhibition assay; assay type: biochemical
T4 construct: purchased Upstate
T4 sequence (P42338 whole entry): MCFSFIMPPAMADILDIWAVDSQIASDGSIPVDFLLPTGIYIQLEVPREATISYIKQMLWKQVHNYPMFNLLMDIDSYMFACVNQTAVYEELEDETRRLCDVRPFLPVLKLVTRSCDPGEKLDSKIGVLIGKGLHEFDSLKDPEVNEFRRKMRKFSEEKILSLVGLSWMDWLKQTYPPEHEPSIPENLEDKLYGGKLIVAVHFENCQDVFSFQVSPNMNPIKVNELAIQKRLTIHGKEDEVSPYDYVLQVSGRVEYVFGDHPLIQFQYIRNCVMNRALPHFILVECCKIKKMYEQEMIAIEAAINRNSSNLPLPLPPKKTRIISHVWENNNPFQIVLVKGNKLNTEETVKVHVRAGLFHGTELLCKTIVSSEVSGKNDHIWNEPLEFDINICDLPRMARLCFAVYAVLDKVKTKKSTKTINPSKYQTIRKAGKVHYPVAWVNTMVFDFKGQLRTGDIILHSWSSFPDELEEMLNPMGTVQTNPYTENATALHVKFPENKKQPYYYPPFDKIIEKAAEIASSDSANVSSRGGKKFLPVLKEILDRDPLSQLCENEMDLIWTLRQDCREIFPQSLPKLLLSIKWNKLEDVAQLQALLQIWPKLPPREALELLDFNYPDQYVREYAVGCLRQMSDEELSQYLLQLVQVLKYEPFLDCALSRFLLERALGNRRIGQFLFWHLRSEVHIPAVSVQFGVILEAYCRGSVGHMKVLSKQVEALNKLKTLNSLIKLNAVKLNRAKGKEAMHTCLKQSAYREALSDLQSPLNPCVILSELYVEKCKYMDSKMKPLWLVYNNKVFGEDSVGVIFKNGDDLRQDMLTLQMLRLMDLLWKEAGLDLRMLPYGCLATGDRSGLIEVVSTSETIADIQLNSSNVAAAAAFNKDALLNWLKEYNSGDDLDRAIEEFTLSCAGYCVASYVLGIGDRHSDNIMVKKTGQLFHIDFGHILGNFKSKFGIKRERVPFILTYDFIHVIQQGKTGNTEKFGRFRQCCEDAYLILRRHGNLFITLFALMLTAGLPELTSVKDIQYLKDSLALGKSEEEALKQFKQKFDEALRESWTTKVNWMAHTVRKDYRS
T4 sequence (P27986 whole entry partner): as the sequence (P27986 whole entry partner) above
Description: as §2, §3

[5] = system: Balb/c splenic B cells; test: B cell activation and proliferation assay (Alamar Blue); assay type: cell-based; conditions: Mus musculus
Description: The ability of one or more subject compounds to inhibit B cell activation and proliferation is determined according to standard procedures known in the art. For example, an in vitro cellular proliferation assay is established that measures the metabolic activity of live cells. The assay is performed in a 96 well microtiter plate using Alamar Blue reduction. Balb/c splenic B cells are purified over a Ficoll-Paque™ PLUS gradient followed by magnetic cell separation using a MACS B cell Isolation Kit (Miletenyi). Cells are plated in 90 μl at 50,000 cells/well in B Cell Media (RPMI+10% FBS+Penn/Strep+50 μM bME+5 mM HEPES). A compound disclosed herein is diluted in B Cell Media and added in a 10 μl volume. Plates are incubated for 30 min at 37° C. and 5% CO2 (0.2% DMSO final concentration). A 50 μl B cell stimulation cocktail is then added containing either 10 μg/ml LPS or 5 μg/ml F(ab′)2 Donkey anti-mouse IgM plus 2 ng/ml recombinant mouse IL4 in B Cell Media. Plates are incubated for 72 hours at 37° C. and 5% CO2. A volume of 15 μL of Alamar Blue reagent is added to each well and plates are incubated for 5 hours at 37° C. and 5% CO2. Alamar Blue fluoresce is read at 560Ex/590Em, and IC50 or EC50 values are calculated using GraphPad Prism 5.

[6] = reference compounds, 5 μM; cited from earlier work
[7] = system: B6.Sle1z.Sle3z model; conditions: cited from earlier work
[8] = PBS pH 7.4, 37° C., 24 hours; cited from earlier work
[9] = read-out: B cell proliferation EC50
[10] = read-out: B cell proliferation EC50 (nM)

T1 sequence (O00329 whole entry): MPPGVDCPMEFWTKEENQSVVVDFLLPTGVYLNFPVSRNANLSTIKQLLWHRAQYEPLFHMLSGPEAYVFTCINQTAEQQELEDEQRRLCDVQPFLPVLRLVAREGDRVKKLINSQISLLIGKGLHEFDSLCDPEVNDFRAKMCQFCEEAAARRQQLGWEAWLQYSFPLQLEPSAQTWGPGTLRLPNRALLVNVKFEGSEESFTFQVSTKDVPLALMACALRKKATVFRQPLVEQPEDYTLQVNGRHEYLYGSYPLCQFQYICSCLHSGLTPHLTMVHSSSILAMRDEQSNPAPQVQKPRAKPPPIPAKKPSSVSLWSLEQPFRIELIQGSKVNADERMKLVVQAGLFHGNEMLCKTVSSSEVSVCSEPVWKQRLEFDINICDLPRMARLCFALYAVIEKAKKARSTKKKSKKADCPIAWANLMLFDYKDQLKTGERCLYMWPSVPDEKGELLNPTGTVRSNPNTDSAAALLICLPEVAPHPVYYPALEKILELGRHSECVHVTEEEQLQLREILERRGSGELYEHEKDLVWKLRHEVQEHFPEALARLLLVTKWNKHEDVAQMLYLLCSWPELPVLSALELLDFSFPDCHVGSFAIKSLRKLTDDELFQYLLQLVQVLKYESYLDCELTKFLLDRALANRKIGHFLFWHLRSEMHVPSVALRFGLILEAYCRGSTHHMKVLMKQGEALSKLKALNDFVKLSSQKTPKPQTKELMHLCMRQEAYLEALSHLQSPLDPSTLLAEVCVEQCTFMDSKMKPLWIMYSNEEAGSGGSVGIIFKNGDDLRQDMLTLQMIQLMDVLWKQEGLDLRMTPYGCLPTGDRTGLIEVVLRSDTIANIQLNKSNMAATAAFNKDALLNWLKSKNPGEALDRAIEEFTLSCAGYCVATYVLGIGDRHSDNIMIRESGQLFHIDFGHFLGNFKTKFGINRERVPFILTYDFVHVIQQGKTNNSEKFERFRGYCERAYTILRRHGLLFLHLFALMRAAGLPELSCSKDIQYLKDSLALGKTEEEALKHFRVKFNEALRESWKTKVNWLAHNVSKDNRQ
T1 sequence (P27986 whole entry partner): as the sequence (P27986 whole entry partner) above

Structure (SMILES) | IC50 [1] [nM] | IC50 [2] [nM] | IC50 [3] [nM] | IC50 [4] [nM] | EC50 [5, 9] [nM] | EC50 [5, 10] [nM] | plasma stability [6] | lupus symptoms [7] | chemical stability [8]
C[C@@H](Nc1ncnc2[nH]cnc12)c1cc2cccc(-c3ccncc3)c2c(=O)n1-c1ccccc1 (stereo in doubt) [Compound 21] | < 100 | < 100 | < 10000 | < 10000 | < 100 | – | – | – | –
C[C@@H](Nc1ncnc2[nH]cnc12)c1cc2cccc(-c3cc[nH]n3)c2c(=O)n1-c1ccccc1 (stereo in doubt) [Compound 18] | < 100 | < 100 | > 10000 | > 10000 | < 100 | – | – | – | –
C[C@@H](Nc1ncnc2[nH]cnc12)c1cc2cccc(-c3cccnc3)c2c(=O)n1C1CC1 (stereo in doubt) [Compound 13] | < 100 | < 100 | < 10000 | < 1000 | – | < 100 | – | – | –
C[C@@H](Nc1ncnc2[nH]cnc12)c1cc2cccc(-c3cn[nH]c3)c2c(=O)n1C1CC1 [Compound 12] | < 100 | < 100 | < 1000 | < 1000 | < 100 | – | – | – | –
CCCOc1cc(N)ccc1C(=O)OCCN(CC)CC [propoxycaine] | – | – | – | – | – | – | low plasma stability | – | –
C[C@@H](Nc1ncnc2[nH]cnc12)c1cc2cccc(-c3cccnc3)c2c(=O)n1-c1ccccc1 (stereo in doubt) [Compound 7] | < 100 | < 100 | < 10000 | < 10000 | < 100 | – | – | – | –
C[C@@H](Nc1ncnc2[nH]cnc12)c1cc2cccc(-c3cnn(C)c3)c2c(=O)n1C1CC1 (stereo in doubt) [Compound 20] | < 100 | < 1000 | < 10000 | < 10000 | < 100 | – | – | – | –
CO[C@H]1C[C@@H]2CC[C@@H](C)[C@@](O)(O2)C(=O)C(=O)N2CCCC[C@H]2C(=O)O[C@H]([C@H](C)C[C@@H]2CC[C@@H](OCCO)[C@H](OC)C2)CC(=O)[C@H](C)/C=C(\C)[C@@H](O)[C@@H](OC)C(=O)[C@H](C)C[C@H](C)/C=C/C=C/C=C/1C [RAD001, everolimus] | – | – | – | – | – | – | – | ameliorate lupus symptoms | –
C[C@@H](Nc1ncnc2[nH]cnc12)c1cc2cccc(-c3cnn(C)c3)c2c(=O)n1-c1ccccc1 (stereo in doubt) [Compound 19] | < 100 | < 100 | > 10000 | > 10000 | < 100 | – | – | – | –
O=C(O)CCCc1ccc(N(CCCl)CCCl)cc1 [chlorambucil] | – | – | – | – | – | – | – | – | largely hydrolyzed over the course of 24 hours
CC(C)[N+](C)(CCOC(=O)C1c2ccccc2Oc2ccccc21)C(C)C [propantheline] | – | – | – | – | – | – | intermediate plasma stability | – | –
C=Cc1cccc2cc(C(C)Nc3ncnc4[nH]cnc34)n(-c3ccccc3)c(=O)c12 (stereo in doubt) [Compound 8, (S)-3-(1-((9H-purin-6-yl)amino)ethyl)-2-phenyl-8-vinylisoquinolin-1(2H)-one] | < 100 | < 100 | < 10000 | < 10000 | < 100 | – | – | – | –
C[C@@H](Nc1ncnc2[nH]cnc12)c1cc2cccc(N(C)C)c2c(=O)n1-c1ccccc1 (stereo in doubt) [Compound 17] | < 10000 | < 10000 | > 10000 | > 10000 | < 100 | – | – | – | –
C[C@@H](Nc1ncnc2[nH]cnc12)c1cc2cccc(-c3cccc(F)c3)c2c(=O)n1-c1ccccc1 (stereo in doubt) [Compound 25] | < 100 | < 100 | < 10000 | < 10000 | – | < 100 | – | – | –
CC(Nc1ncnc2[nH]cnc12)c1cc2cccc(C#N)c2c(=O)n1-c1ccccc1 (stereo in doubt) [Compound 16, (S)-3-(1-((9H-purin-6-yl)amino)ethyl)-1-oxo-2-phenyl-1,2-dihydroisoquinoline-8-carbonitrile] | < 100 | < 100 | > 10000 | < 10000 | < 100 | – | – | – | –
CCc1cccc2cc(C(C)Nc3ncnc4[nH]cnc34)n(-c3ccccc3)c(=O)c12 (stereo in doubt) [Compound 9, (S)-3-(1-((9H-purin-6-yl)amino)ethyl)-8-ethyl-2-phenylisoquinolin-1(2H)-one] | < 100 | < 100 | < 10000 | < 10000 | < 100 | – | – | – | –
